Experimental data taken from patent publication US9422338B2 (EpoDose LLC, priority 2011, dated 2016).
Each block holds one molecule with its values, some of them ahead of it. Where a SMILES comes first, the peptide text is derived from it. Bridges are numbered along the chain shown (N, C = ends). Roman numbers before positions name the chains, in order. [ ]: non-standard residue; d: D form. ξ: configuration not given here. 1Nal = N[C@@H](Cc1cccc2ccccc12)C(=O)O; ξK = NCCCCC(N)C(=O)O; Ava = NCCCCC(=O)O

Target: T1, EPOR (erythropoietin receptor), human recombinant, NSO cells (Homo sapiens, UniProt P19235)
T1 construct: host or cells: NSO cells
T1 sequence (P19235 25-250 limits assumed): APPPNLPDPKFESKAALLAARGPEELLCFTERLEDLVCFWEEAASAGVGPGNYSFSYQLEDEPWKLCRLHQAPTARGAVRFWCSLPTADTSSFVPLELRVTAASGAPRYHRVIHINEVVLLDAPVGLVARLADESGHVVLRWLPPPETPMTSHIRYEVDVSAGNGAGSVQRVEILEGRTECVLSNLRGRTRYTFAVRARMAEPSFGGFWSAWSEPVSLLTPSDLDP
Assay: EPOR radioligand binding assay ([125I] Erythropoietin competition)
Conditions: for Ki (AC-0005-002)/Ki: Ki relative to that of AC-0005-002; for Ki/Ki(EPO): Ki relative to that of EPO
Experimental: IC50 values were determined by a non-linear, least squares regression analysis using MATHIQ™ (computer software for integrating mathematical functions into new or existing software). […] Where presented, the Hill coefficient (nH), defining the slope of the competitive binding curve, was calculated using MATHIQ™.

[1] = Example 1, mimetics varied in N-end, loop and mid sequences

Ki [1]: 17 nM
IC50 (Example 4, fourth table): 35 nM
SMILES: CSCC[C@@H]1NC(=O)[C@H](CCCNC(=N)N)NC(=O)C(NC(=O)[C@H](CC(C)C)NC(=O)[C@H](Cc2ccc(O)cc2)NC(=O)[C@H](CC(N)=O)NC(C)=O)CCOCC(C(=O)N[C@@H](CCCCN)C(=O)N2CCC[C@H]2C(=O)NCCCCC(=O)NCCCCC(NC(=O)[C@@H]2CCCN2C(=O)[C@H](CCCCN)NC(=O)C2COCCC(NC(=O)[C@H](CC(C)C)NC(=O)[C@H](Cc3ccc(O)cc3)NC(=O)[C@H](CC(N)=O)NC(C)=O)C(=O)N[C@@H](CCCNC(=N)N)C(=O)N[C@@H](CCSC)C(=O)N[C@@H](CCc3ccccc3)C(=O)N[C@@H](Cc3c[nH]c4ccccc34)C(=O)N[C@@H](C(C)C)C(=O)N2)C(N)=O)NC(=O)[C@H](C(C)C)NC(=O)[C@H](Cc2c[nH]c3ccccc23)NC(=O)[C@H](CCc2ccccc2)NC1=O (stereo partly drawn) [AC-0005-023]

Ki (Example 2, mimetics varied in loop, mid and C-end): 27.7 nM
IC50 (Example 4, sixth table): 58.5 nM
SMILES: CSCC[C@@H]1NC(=O)[C@H](CCCNC(=N)N)NC(=O)C(NC(=O)[C@H](CC(C)C)NC(=O)[C@H](Cc2ccc(O)cc2)NC(=O)[C@H](CC(N)=O)NC(C)=O)CCOCC(C(=O)N[C@@H](CCCCN)C(=O)N2CCC[C@H]2C(=O)NC(CCCCNC(=O)CCCC(NC(=O)[C@@H]2CCCN2C(=O)[C@H](CCCCN)NC(=O)C2COCCC(NC(=O)[C@H](CC(C)C)NC(=O)[C@H](Cc3ccc(O)cc3)NC(=O)[C@H](CC(N)=O)NC(C)=O)C(=O)N[C@@H](CCCNC(=N)N)C(=O)N[C@@H](CCSC)C(=O)N3CCC[C@H]3C(=O)N[C@@H](Cc3ccc4ccccc4c3)C(=O)N[C@@H](C(C)C)C(=O)N2)C(=O)N[C@@H](CCCNC(=N)N)C(N)=O)C(=O)N[C@@H](CCCNC(=N)N)C(N)=O)NC(=O)[C@H](C(C)C)NC(=O)[C@H](Cc2ccc3ccccc3c2)NC(=O)[C@@H]2CCCN2C1=O (stereo partly drawn) [AC-0005-061]

Ki (AC-0005-002)/Ki (Example 4, sixth table): 195
Ki/Ki(EPO) (Example 4, sixth table): 330
SMILES: CCN[C@@H](CC(N)=O)C(=O)N[C@@H](Cc1ccc(O)cc1)C(=O)N[C@@H](CC(C)C)C(=O)NC1CCOCC(C(=O)N[C@@H](CCCCNC(=N)N)C(=O)N2CCC[C@H]2C(=O)NC(CCCC(=O)NCCCCC(NC(=O)[C@@H]2CCCN2C(=O)[C@H](CCCCNC(=N)N)NC(=O)C2COCCC(NC(=O)[C@H](CC(C)C)NC(=O)[C@H](Cc3ccc(O)cc3)NC(=O)[C@H](CC(N)=O)NC(C)=O)C(=O)N[C@@H](CCCNC(=N)N)C(=O)N[C@@H](CCSC)C(=O)N3CCC[C@H]3C(=O)N[C@@H](Cc3ccc4ccccc4c3)C(=O)N[C@@H](C(C)C)C(=O)N2)C(=O)N[C@@H](CCCNC(=N)N)C(N)=O)C(=O)N[C@@H](CCCNC(=N)N)C(N)=O)NC(=O)[C@H](C(C)C)NC(=O)[C@H](Cc2ccc3ccccc3c2)NC(=O)[C@@H]2CCCN2C(=O)[C@H](CCSC)NC(=O)[C@H](CCCNC(=N)N)NC1=O (stereo partly drawn) [AC-0005-060]

Ki [1]: 11.2 nM
IC50 (Example 3): 23.5 nM
Ki (Example 3, Cheng-Prusoff): 11.1 nM
IC50 (Example 4, fifth table): 24 nM
SMILES: CSCC[C@@H]1NC(=O)[C@H](Cc2c[nH]cn2)NC(=O)C(NC(=O)[C@H](CC(C)C)NC(=O)[C@H](Cc2ccc(O)cc2)NC(=O)[C@H](CC(N)=O)NC(C)=O)CCOCC(C(=O)N[C@@H](CCCCNC(=N)N)C(=O)N2CCC[C@H]2C(=O)NCCCCC(=O)NCCCCC(NC(=O)[C@@H]2CCCN2C(=O)[C@H](CCCCNC(=N)N)NC(=O)C2COCCC(NC(=O)[C@H](CC(C)C)NC(=O)[C@H](Cc3ccc(O)cc3)NC(=O)[C@H](CC(N)=O)NC(C)=O)C(=O)N[C@@H](Cc3c[nH]cn3)C(=O)N[C@@H](CCSC)C(=O)N3CCC[C@H]3C(=O)N[C@@H](Cc3ccc4ccccc4c3)C(=O)N[C@@H](C(C)C)C(=O)N2)C(N)=O)NC(=O)[C@H](C(C)C)NC(=O)[C@H](Cc2ccc3ccccc3c2)NC(=O)[C@@H]2CCCN2C1=O (stereo partly drawn) [AC-0005-056]

NH (Hill coefficient) (Example 3, slope of competitive binding curve): 1.86
Ki (AC-0005-002)/Ki (Example 4, fifth table): 403
Ki/Ki(EPO) (Example 4, fifth table): 120
SMILES: CSCC[C@@H]1NC(=O)[C@H](CCCNC(=N)N)NC(=O)C(NC(=O)[C@H](CC(C)C)NCOCCCO)CCOCC(C(=O)N[C@@H](CCCCNC(=N)N)C(=O)N2CCC[C@H]2C(=O)NCCCCC(=O)NCCCCC(NC(=O)[C@@H]2CCCN2C(=O)[C@H](CCCCNC(=N)N)NC(=O)C2COCCC(NC(=O)[C@H](CC(C)C)NCOCCCO)C(=O)N[C@@H](CCCNC(=N)N)C(=O)N[C@@H](CCSC)C(=O)N3CCC[C@H]3C(=O)N[C@@H](Cc3c[nH]c4ccccc34)C(=O)N[C@@H](C(C)C)C(=O)N2)C(N)=O)NC(=O)[C@H](C(C)C)NC(=O)[C@H](Cc2c[nH]c3ccccc23)NC(=O)[C@@H]2CCCN2C1=O (stereo partly drawn) [AC-0005-053]

The next lines start with the molecule.

SMILES: CC[C@H](C)[C@@H]1NC(=O)[C@@H]2CCCN2C(=O)CNC(=O)[C@H](CCSC)NC(=O)[C@H](Cc2c[nH]cn2)NC(=O)[C@@H](NC(=O)[C@H](C)NC(=O)[C@H](Cc2ccc(O)cc2)NC(=O)[C@H](CC(C)C)NC(C)=O)CSSC[C@@H](C(=O)NCCCCC(=O)NCCCCC(NC(=O)[C@@H]2CSSC[C@H](NC(=O)[C@H](C)NC(=O)[C@H](Cc3ccc(O)cc3)NC(=O)[C@H](CC(C)C)NC(C)=O)C(=O)N[C@@H](Cc3c[nH]cn3)C(=O)N[C@@H](CCSC)C(=O)NCC(=O)N3CCC[C@H]3C(=O)N[C@@H]([C@@H](C)CC)C(=O)N[C@@H]([C@@H](C)O)C(=O)N[C@@H](Cc3cccc4ccccc34)C(=O)N[C@@H](C(C)C)C(=O)N2)C(N)=O)NC(=O)[C@H](C(C)C)NC(=O)[C@H](Cc2cccc3ccccc23)NC(=O)[C@H]([C@@H](C)O)NC1=O (stereo partly drawn) [AC-0005-006] (I: Ac-LYACHMGPIT[1Nal]VC[ξK]-NH2 / II: Ac-LYACHMGPIT[1Nal]VC[Ava]; disulfide I:4-I:13, II:4-II:13; amide I:14-II:C)
IC50 (Example 4, first table): > 10000 nM

SMILES: CC[C@H](C)[C@@H]1NC(=O)[C@@H]2CCCN2C(=O)CNC(=O)[C@H](CCSC)NC(=O)[C@H](CCCNC(=N)N)NC(=O)[C@@H](NC(=O)[C@H](CC(C)C)NC(=O)[C@H](Cc2ccc(O)cc2)NC(=O)[C@H](CC(N)=O)NC(C)=O)CSSC[C@@H](C(=O)N[C@@H](CCCCN)C(=O)N2CCC[C@H]2C(=O)NCCCCC(=O)NCCCCC(NC(=O)[C@@H]2CCCN2C(=O)[C@H](CCCCN)NC(=O)[C@@H]2CSSC[C@H](NC(=O)[C@H](CC(C)C)NC(=O)[C@H](Cc3ccc(O)cc3)NC(=O)[C@H](CC(N)=O)NC(C)=O)C(=O)N[C@@H](CCCNC(=N)N)C(=O)N[C@@H](CCSC)C(=O)NCC(=O)N3CCC[C@H]3C(=O)N[C@@H]([C@@H](C)CC)C(=O)N[C@@H]([C@@H](C)O)C(=O)N[C@@H](Cc3c[nH]c4ccccc34)C(=O)N[C@@H](C(C)C)C(=O)N2)C(N)=O)NC(=O)[C@H](C(C)C)NC(=O)[C@H](Cc2c[nH]c3ccccc23)NC(=O)[C@H]([C@@H](C)O)NC1=O (stereo partly drawn) [AC-0005-003] (I: Ac-NYLCRMGPITWVCKP[ξK]-NH2 / II: Ac-NYLCRMGPITWVCKP[Ava]; disulfide I:4-I:13, II:4-II:13; amide I:16-II:C)
Ki [1]: 48 nM

SMILES: CSCC[C@@H]1NC(=O)[C@H](CCCNC(=N)N)NC(=O)C(NC(=O)[C@H](CC(C)C)NC(=O)[C@H](Cc2ccc(O)cc2)NC(=O)[C@H](CC(N)=O)NC(C)=O)CCOCC(C(=O)N[C@@H](CCCCN)C(=O)N2CCC[C@H]2C(=O)NCCCCC(=O)NCCCCC(NC(=O)[C@@H]2CCCN2C(=O)[C@H](CCCCN)NC(=O)C2COCCC(NC(=O)[C@H](CC(C)C)NC(=O)[C@H](Cc3ccc(O)cc3)NC(=O)[C@H](CC(N)=O)NC(C)=O)C(=O)N[C@@H](CCCNC(=N)N)C(=O)N[C@@H](CCSC)C(=O)NCCC(=O)N[C@@H](Cc3c[nH]c4ccccc34)C(=O)N[C@@H](C(C)C)C(=O)N2)C(N)=O)NC(=O)[C@H](C(C)C)NC(=O)[C@H](Cc2c[nH]c3ccccc23)NC(=O)CCNC1=O (stereo partly drawn) [AC-0005-019]
Ki [1]: 27 nM
IC50 (Example 4, second table): 57 nM

SMILES: CSCC[C@@H]1NC(=O)[C@H](CCCNC(=N)N)NC(=O)C(NC(=O)[C@H](CC(C)C)NC(=O)[C@H](Cc2ccc(O)cc2)NC(=O)[C@H](CC(N)=O)NC(C)=O)CCOCC(C(=O)N[C@@H](CCCNC(=N)N)C(=O)N2CCC[C@H]2C(=O)NCCCCC(=O)NCCCCC(NC(=O)[C@@H]2CCCN2C(=O)[C@H](CCCNC(=N)N)NC(=O)C2COCCC(NC(=O)[C@H](CC(C)C)NC(=O)[C@H](Cc3ccc(O)cc3)NC(=O)[C@H](CC(N)=O)NC(C)=O)C(=O)N[C@@H](CCCNC(=N)N)C(=O)N[C@@H](CCSC)C(=O)NCC(=O)N[C@@H](Cc3c[nH]c4ccccc34)C(=O)N[C@@H](C(C)C)C(=O)N2)C(N)=O)NC(=O)[C@H](C(C)C)NC(=O)[C@H](Cc2c[nH]c3ccccc23)NC(=O)CNC1=O (stereo partly drawn) [AC-0005-020]
Ki [1]: 44 nM
IC50 (Example 4, fourth table): 93 nM

SMILES: CSCC[C@@H]1NC(=O)[C@H](CCCNC(=N)N)NC(=O)C(NC(=O)[C@H](CC(C)C)NC(=O)[C@H](Cc2ccc(O)cc2)NC(=O)[C@H](CC(N)=O)NC(C)=O)CCOCC(C(=O)N[C@@H](CCCCN)C(=O)N2CCC[C@H]2C(=O)NCCCCC(=O)NCCCCC(NC(=O)[C@@H]2CCCN2C(=O)[C@H](CCCCN)NC(=O)C2COCCC(NC(=O)[C@H](CC(C)C)NC(=O)[C@H](Cc3ccc(O)cc3)NC(=O)[C@H](CC(N)=O)NC(C)=O)C(=O)N[C@@H](CCCNC(=N)N)C(=O)N[C@@H](CCSC)C(=O)N[C@@H](Cc3ccccc3)C(=O)N[C@@H](Cc3c[nH]c4ccccc34)C(=O)N[C@@H](C(C)C)C(=O)N2)C(N)=O)NC(=O)[C@H](C(C)C)NC(=O)[C@H](Cc2c[nH]c3ccccc23)NC(=O)[C@H](Cc2ccccc2)NC1=O (stereo partly drawn) [AC-0005-022]
Ki [1]: 17 nM
IC50 (Example 4, fourth table): 36 nM
